Results taken from patent US5985273A, “Biological control of insects” (priority 1994, dated 1999).
In brackets after ≈: the same amount, converted by molar mass. Starred links: 1 amine or outer side, 2 acyl side, 3 side chain; linkers in the order of their positions; H or OH if unused. Non-standard residues stand in square brackets, D forms with d. Residues, ends and D or L forms follow the SMILES beside them. *: point of attachment. Sta = CC(C)C[C@H](N)[C@@H](O)CC(=O)O; Isovaleryl = CC(C)CC(=O)*; Nle = CCCC[C@H](N)C(=O)O; CO = O=C([*:1])[*:2]

Columns and labels:
[1] = test system: Lucilia cuprina larvae; assay: Growth and survival of first instar sheep blowfly larvae on culture medium with inhibitor; assay type: in vivo; details: for Effect on larval growth, summary in words: Example 1, Table 1.2
[2] = test system: Colorado potato beetle larvae; details: cited from earlier work
[3] = test system: Teleogryllus commodus; assay: Mortality of black field cricket nymphs on treated cabbage leaf disks; assay type: in vivo; details: after 7 days
Experimental: (i) Stock solutions of inhibitors and control solutions were prepared as aqueous solutions or suspensions as outlined in Table 6.1.
(ii) Mortality was assessed by commencing the study with 1st instar nymphs.
(iii) Cabbage leaf disks (5×8 mm diameter disks/treatment) were smeared with 100 μl of inhibitor or control stock solutions and allowed to dry. Disks were placed singly in 40 mm petri dishes, together with a moist cotton wool pas as water supply and a piece of fluted plastic for shelter.
(iv) Ten nymphs were placed on each disc and the dishes incubated at 25° C.
(v) Mortality was assessed daily and any dead individuals removed.

[4] = test system: O. surinamensis larvae; assay: Weight reduction of Oryzaephylus surinamensis larvae in treated flour; assay type: in vivo
Experimental: Insects were cultured in cleaned, ground and sieved wholemeal flour made from organic wheat. Inhibitors from bottles of pre-weighed material were dry-mixed with the flour and residual inhibitor rinsed from bottles with a small volume of water. Rinse water was added to the flour and the mixture re-ground. The impregnated flour was transferred to a 20 mL vial and mixed thoroughly by shaking and inverting.
Adults of T. castaneum were allowed to oviposit on flour, eggs were sifted from the flour and transferred one by one with a single hair to microwell tubes containing a small amount of flour. Each level of treatment was performed in triplicated using 32 wells/replicate. Assays were performed in triplicated. Cultures were incubated at 30° C. and 55% R H.
The bioassay for this insect was outlined for T. castaneum, except incubations were conducted at 32.5° C. and 70% R H. After 8 days the insects were sieved from the flour and weighed.

[5] = test system: Bovicola ovis (Hartley strain); details: cited from earlier work
[6] = test system: Heliothis punctigens larvae; assay: Growth and survival of cotton budworm larvae fed an artificial diet; assay type: in vivo; details: for % Alive / Average Laval Weight: 10 days; for % Alive: control 70.0; for Average Laval Weight: control 165.4
Experimental: 1. The Haricot beans were cooked in a microwave for 40 minutes. 2. Agar was added to the hot water and stirred on a hot plate until almost boiling. 3. The haricot beans, agar mix, yeast and wheat germ was blended in an electric mixer for 3 minutes. 4. When the temperature has dropped to 60°C., the acids were added and mixed with the media. […] Inhibitor solutions or an equal volume of water were placed into sterilized glass tubes at designated concentrations. The artificial media was added to each tube (1.5 ml) using a sterile 10 ml syringe. First instar Heliothis punctigens larvae (1 larvae per tube) were added to the glass tubes and the tubes were capped. The tubes were incubated for 10 days at 25° C. The larvae were killed by placing the glass tubes at -70° C. for 24 hours, and then individually weighed. Percentage inhibition was calculated by comparison to control larvae.

[7] = test system: Ctenocephalides felis; assay: Development of cat flea eggs in dried blood diets; assay type: in vivo; details: Day 16
Experimental: Blood was collected from the jugular vein of a five year old merino sheep that had not been treated with an ectoparasitic agent for 18 months. The blood was collected into a 100 ml plastic bottle containing 0.8 ml of heparin and was maintained at 4° C. Inhibitors were pre-weighed into sterile 5 ml plastic vials and 4.5 ml of blood added. The samples were mixed, placed at -70° C. for 24 hours, then freeze-dried. The freeze-dried samples were sieved through a stainless steel 63 micron sieve, and placed into sterile 5 ml plastic vials (0.15 g/per tube). Four flea eggs were placed into each vial, and a sheet of tissue paper fastened by an elastic band was fitted to the top of each vial. The vials were incubated at 25° C. and 70-80% R H for 6 days. Vermiculite was then added to each vial to provide a supporting medium for the fleas to pupate and the tubes incubated at 25° C. and 70-80% R H, for a further 10 days. Ten control vials and three vials of each treatment were tested.
At the conclusion of the incubation period the vials were placed at -20° C. for 24 hours to kill the fleas. The number of eggs hatched and the life-cycle state was recorded.

[8] = Lucilia cuprina, first instar larvae, 2 mM
[9] = 192 h, 2.5 mM, 8 days, relative to untreated larvae, read-out: Percentage Growth Inhibition
[10] = 192 h, 5 mM, 8 days, relative to untreated larvae, read-out: Percentage Growth Inhibition
[11] = 192 h, 10 mM, 8 days, relative to untreated larvae, read-out: Percentage Growth Inhibition
[12] = first instar larvae, tested at 1, 2, 5, 10 mM
[13] = Heliothis, 240 h, read-out: % Growth Inhibition

CC(C)C[C@H](NC(=O)[C@H]1O[C@@H]1C(=O)O)C(=O)NCCCCN=C(N)N (relative stereo) [E64, L-trans-epoxy-succinyl-leucylamido-(4-guanidino-butane)]
Effect on larval growth, summary in words [1]: ineffective
Growth Inhibition ([1]; first instar larvae, tested at 1, 2, 5 mM): No inhibition detected
Plateau in mortality ([2]; 1000 μg/ml application level): 74-85%
Threshold level for larval growth reduction ([2]; fed on potato leaves): 50 µg/mL

CC(C)C[C@@H](N)[C@H](O)C(=O)N[C@H](C(=O)N[C@H](C(=O)N[C@@H](CC(=O)O)C(=O)O)C(C)C)C(C)C [Amastatin, ((2S,3R)-3-amino-2-hydroxy-5-methyl-hexanoyl)-Val-Val-Asp-OH]
Effect on larval growth, summary in words [1]: effective growth inhibitors
inhibition at 2000 µM [1, 8]: 60%

CC(C)[C@H](NC(=O)[C@H](CCCNC(=N)N)NC(=O)N[C@@H](Cc1ccccc1)C(=O)O)C(=O)N[C@H](C=O)CCCNC(=N)N [Antipain] ({Phe-CO}-Arg-Val-Arg-aldehyde)
inhibition at 2500 µM ([1]; Lucilia cuprina, first instar larvae, 2.5 mM, unit inferred): 45.5%
inhibition at 5000 µM ([1]; Lucilia cuprina, first instar larvae, 5 mM, unit inferred): 63.2%
Mortality (class) ([3]; 2.5-10 mM): None (none/low, 10-20% mortality)
inhibition at 2500 µM [4, 9]: -10%
inhibition at 5000 µM [4, 10]: -2%
inhibition at 10000 µM [4, 11]: -2%

CC(C)C[C@H](NC(=O)[C@@H](O)[C@H](N)Cc1ccccc1)C(=O)O [Bestatin]
Effect on larval growth, summary in words [1]: effective growth inhibitors
inhibition at 5000 µM ([1]; Lucilia cuprina, first instar larvae, 5 mM): 63%
inhibition at 1250 µM ([4]; 192 h, 1.25 mM, 8 days, relative to untreated larvae, read-out: Percentage Growth Inhibition): -5%
inhibition at 2500 µM [4, 9]: 2%
inhibition at 5000 µM [4, 10]: -4%
Growth inhibition, summary in words ([4]; text summary of Table 9.1): ineffective

O=BOB(O)OB(O)OB=O [Borax]
Mortality ([3]; 5-20 mM): 93%
Mortality (class) ([3]; 5-20 mM): High (high 41-100%)
inhibition at 5000 µM [4, 10]: -5%
inhibition at 10000 µM [4, 11]: 39%
inhibition at 20000 µM ([4]; 192 h, 20 mM, 8 days, relative to untreated larvae, read-out: Percentage Growth Inhibition): 68%

CCCC[C@@H](C=O)NC(=O)[C@H](CC(C)C)NC(=O)[C@H](CC(C)C)NC(C)=O [Calpain inhibitor I, N-Acetyl-Leu-Ley-norleucinal] (Ac-Leu-Leu-[Nle]-aldehyde)
Growth Inhibition ([1]; first instar larvae, 2 mM): 71%

CC1(C)C(C=C(Cl)Cl)C1C(=O)OC(C#N)c1cccc(Oc2ccccc2)c1 (stereo not drawn) [Cypermethrin]
LC95 ([5]; Hartley strain lice): 475 µg/mL (≈ 1140 µM)

CCOP(=S)(OCC)Oc1cc(C)nc(C(C)C)n1 [Diatinon]
LC50 ([5]; Hartley strain lice): 5.31 µg/mL (≈ 17.4 µM)
LC95 ([5]; Hartley strain lice): 19.7 µg/mL (≈ 64.7 µM)
Resistance Factor ([5]; Hartley strain, (Singapore)): 1.4

CC[C@H](C)[C@H](N)C(=O)N1CCC[C@H]1C(=O)N[C@H](C(=O)O)[C@@H](C)CC [Diprotin, H-Ile-Pro-Ile-OH]
Effect on larval growth, summary in words [1]: ineffective
Growth Inhibition [1, 12]: No inhibition detected

CC(C)CC(N)CS [L-leucinethiol, 2-amino-4-methyl-1-pentanethiol]
Effect on larval growth, summary in words [1]: effective growth inhibitors
inhibition at 1000 µM ([1]; Lucilia cuprina, Table 2.2, 1.00 mM): 21.4%
inhibition at 2000 µM ([1]; Lucilia cuprina, Table 2.2, 2.00 mM): 73.1%
inhibition at 2000 µM [1, 8]: 47%
Average Larval Weight ([1]; Table 2.2, 1.00 mM, control 10.26): 8.06 10^-4 g
Average Larval Weight ([1]; Table 2.2, 2.00 mM, control 10.26): 2.76 10^-4 g
% Growth Incubation ([1]; Table 2.3, 1.0 mM): 67.2%
Average Larval Weight ([1]; Table 2.3, 1.0 mM, control 9.08): 2.98 10^-4 g
% Growth Incubation ([1]; Table 2.3, 2.0 mM): 86.6%
Average Larval Weight ([1]; Table 2.3, 2.0 mM, control 9.08): 1.22 10^-4 g
Larval survival ([1]; first instar larvae, 5 mM): All killed

CC(C)C[C@H](N)[C@](O)(Cc1c[nH]cn1)C(=O)O [Leuhistin, (2R,3S)-3-amino-2-hydroxy-2-(lII-imidazole-4-methyl)-5-methylhexanoic acid]
Effect on larval growth, summary in words [1]: effective growth inhibitors
Growth Inhibition ([1]; first instar larvae, 5 mM): 65%

CC(=O)N[C@@H](CC(C)C)C(=O)N[C@@H](CC(C)C)C(=O)N[C@H](C=O)CCCNC(=N)N [Leupeptin, Ac-Leu-Leu-Arginyl.1/2H2 SO4 H2 O]
% Alive ([6]; 2.5 mM): 16.6%
Average Laval Weight ([6]; 2.5 mM): 16.6 mg
% Alive ([6]; 5.0 mM): 33.3%
Average Laval Weight ([6]; 5.0 mM): 17.0 mg
inhibition at 2500 µM [6, 13]: 90%
inhibition at 5000 µM [6, 13]: 89.7%
Effect on larval growth, summary in words [1]: intermediate inhibition
inhibition at 2000 µM [1, 8]: 71%
inhibition at 10000 µM ([1]; Lucilia cuprina, first instar larvae, 10 mM): 80%
Percentage of Fleas Progressing Through to Pupation ([7]; 1.70 mg in 4.5 ml of blood): 0%
Percentage of Fleas Progressing Through to Pupation ([7]; 3.40 mg in 4.5 ml of blood): 0%

Cl.NCCc1ccc(S(=O)(=O)F)cc1 [PEFABLOC, 4-(2-aminoethyl)-benzenesulfonylfluoride hydrochloride]
Growth Inhibition ([1]; first instar larvae, 10 mM): 72%
Growth Inhibition ([1]; first instar larvae, 50 mM): 92%
Mortality (class) ([3]; 2.5-10 mM): Medium (medium 21-40%)
Percentage of Fleas Progressing Through to Pupation ([7]; 1.10 mg in 4.5 ml of blood): 0%
Percentage of Fleas Progressing Through to Pupation ([7]; 2.20 mg in 4.5 ml of blood): 0%
Percentage Growth Inhibition ([4]; 2.5 mM, 8 days, relative to untreated larvae): 49%
Percentage Growth Inhibition ([4]; 5 mM, 8 days, relative to untreated larvae): 61%
Percentage Growth Inhibition ([4]; 10 mM, 8 days, relative to untreated larvae): 79%

CC(C)CC(=O)N[C@H](C(=O)N[C@H](C(=O)N[C@@H](CC(C)C)[C@@H](O)CC(=O)N[C@@H](C)C(=O)N[C@@H](CC(C)C)[C@@H](O)CC(=O)O)C(C)C)C(C)C [Pepstatin] (Isovaleryl-VV[Sta]A[Sta]-OH)
Effect on larval growth, summary in words [1]: ineffectiveness
Growth Inhibition ([1]; first instar larvae, tested at 1, 2, 10 mM): No inhibition detected
Growth retardation ([2]; fed on potato leaves): only a small response

Casein
Percentage Growth Inhibition ([4]; 10 mg/ml, 8 days): -5%
Percentage Growth Inhibition ([4]; 20 mg/ml, 8 days): 10%
Percentage Growth Inhibition ([4]; 40 mg/ml, 8 days): -2%

tosyl-L-lysine chloromethyl ketone [TLCK]
Effect on larval growth, summary in words [1]: killing the larvae
Larval survival ([1]; first instar larvae, 5 mM): All killed
Larval survival ([1]; first instar larvae, 10 mM): All killed

tosyl-L-phenylalanine chloromethyl ketone [TPCK]
Growth Inhibition [1, 12]: No inhibition detected
